Measured values reported in publication PMC8468663, “Co-Spray Dried Nafamostat Mesylate with Lecithin and Mannitol as Respirable Microparticles for Targeted Pulmonary Delivery: Pharmacokinetics and Lung Distribution in Rats” (Pharmaceutics, 2021).
Structures can show the parent of a compound that is named as a salt.

How the values were obtained:
in vivo = test: in vivo; parameters: species or system Sprague–Dawley rats; conditions: rat, 10 mg/kg; for half-life: T½
Experimental: The Chungbuk National University Institutional Animal Care and Use Committee approved the experimental protocols and animal care methods used in this study. The first in vivo experiment was a pharmacokinetic study to determine the efficacy of NFM based on the route of administration and to determine the effect of lecithin as a stabilizer. After preparing a 0.5% mannitol solution (w/v), NFM was added at a concentration of 25 mg mL^−1 to prepare solution A. In addition, Tween 80 was added to solution A at 1% (w/v), plus lecithin, which was added at a concentration of 25 mg mL^−1, and stirred to evenly disperse it to produce solution B. Each experiment was carried out using a male SD rat (8 weeks old, 230–250 g) in three groups of 16 animals each. The SD rats were fed a commercial pellet diet and fresh water and housed at room temperature (23 ± 1 °C) with a relative humidity of 50 ± 10%, and a 12 h light and dark cycle. First, the intravenous (IV) group was administered a 100 μL dose of solution A (10 mg·kg^−^1) intravenously through the lateral tail vein. Second, a 100 μL dose of solution A (10 mg kg^−^1) was administered by intratracheal instillation (ITI) to the intratracheal instillation-1 (ITI-1) group. Finally, the ITI-2 group was administered a 100 μL dose of solution B (10 mg·kg^−^1). For the analysis of plasma concentration, blood was collected via the orbital vein 1, 5, 10, 30, and 60 min after administration to each group (n = 4). Blood was collected in a heparin tube and gently shaken. Plasma was immediately separated from the blood samples by centrifugation at 3000 rpm for 2 min. After administration to each group (n = 12), 4 rats were sacrificed at 10, 30, and 60 min. BALF samples were obtained by injecting and extracting 5 mL DW into the lungs of the rats. Lung tissues were placed in 10 mL DW and homogenized at 18,000 rpm for 3 min using a homogenizer. Acetonitrile (ACN) was added to plasma, BALF, and lung tissue samples in a ratio of 1:1 (v/v) to precipitate the proteins, and the sample solutions were centrifuged at 18,000 rpm for 5 min to obtain a supernatant. The supernatant was quantified by HPLC analysis. A second in vivo experiment was performed to determine the efficacy of NFM microparticles in a DPI formulation, focusing on the lung lumen and tissue. First, the solution group was administered a solution at a dose of 0.25 mg NFM per rat by ITI (1 mg·kg^−^1). Second, the SD-NM group was treated using a dry powder insufflator for the intratracheal administration of the SD-NM in the form of DPI at a dose of 0.25 mg of NFM per rat (1 mg·kg^−^1). Finally, the SD-NLM group was administered an SD-NLM at a dose of 0.25 mg of NFM per rat (1 mg kg^−^1) using a dry powder insufflator. BALF and lung tissue samples were prepared using the same procedure as that used for the in vivo study described above. The samples were quantified by HPLC analysis.

[1] = test system: SARS-CoV-2 entry into host cells; parameters: method as in PMID 32312781; conditions: cited from earlier work
[2] = cited from earlier work
[3] = male, Sprague-Dawley, Amount of NFM in BALF
[4] = male, Sprague-Dawley, inhaled or intranasal

N=C(N)c1ccc2cc(OC(=O)c3ccc(N=C(N)N)cc3)ccc2c1 [NFM, Nafamostat mesylate]
Amount of NFM in BALF (in vivo; male, Sprague-Dawley, 10 min): 4.48 µg/mL
Amount of NFM in BALF (in vivo; male, Sprague-Dawley, 30 min): 1.69 µg/mL
concentration at 10 min (in vivo; [3]): 2900 ng/mL
concentration at 30 min (in vivo; [3]): 1690 ng/mL
Tmax (in vivo; male, Sprague-Dawley, Tmax): 5 min
Cmax (in vivo; [4]): 22900 ± 4640 ng/mL
Tmax (in vivo; [4]): 4.0 ± 1.00 min
T½ (in vivo; [4]): 28.6 ± 3.51 min
AUC(0-inf) (in vivo; [4]): 11200 ng·h/mL
Cmax (in vivo; male, Sprague-Dawley, inhaled or intranasal, Cmax): 25900 ± 4230 ng/mL
half-life (in vivo; [4]): 26.7 ± 2.6 min
AUC(inf) (in vivo; male, Sprague-Dawley, iv): 436.1 ± 31.59 µg·min/mL
AUC(0-inf) (in vivo; male, Sprague-Dawley, iv): 7270 ng·h/mL
concentration at 10 min (in vivo; male, Sprague-Dawley, iv, Amount of NFM in BALF): 960 ng/mL
Cmax (in vivo; male, Sprague-Dawley, iv, Cmax): 43700 ± 7980 ng/mL
half-life (in vivo; male, Sprague-Dawley, iv): 13.2 ± 0.52 min
Amount of NFM in BALF (in vivo): still had remaining NFM in the BALF
Amount of NFM in lung tissue (in vivo): some residual drug
Amount of NFM in BALF (in vivo; iv): There was no NFM in the BALF
Half-life of ITI-1 and ITI-2 groups relative to IV group (in vivo; iv): approximately twice
EC50, inhibition of SARS-CoV-2 entry into host cells [1]: low nanomolar range
Efficiency of inhibition of SARS-CoV-2 entry relative to camostat mesylate [1]: approximately 15 fold
Half-life in human blood [2]: approximately 3 min
